According to ChEMBL document CHEMBL5226321, “Ivermectin: A Promising Therapeutic for Fighting Malaria. Current Status and Perspective” (J Med Chem, 2021):
Values joined by “and” are separate entries in the source; they are usually repeats but may differ in a detail not shown here. Equal values may be shown once.

Tests used:
Anopheles sp. [1] = test: Insecticidal in Anopheles sp. infected with Plasmodium falciparum gametocytes assessed as mortality fed with compound treated bovine blood at 200 microg/kg observed within 2.87 days feeding at 2 days post treatment relative to control; type: functional, organism-based; settings: dose 200.0 µg/kg, time 2.87 day
Anopheles sp. [2] = test: Insecticidal in Anopheles sp. infected with Plasmodium vivax assessed as mortality rate fed with blood isolated from compound treated human at 200 microg/kg observed for 5 days; type: functional, organism-based; settings: dose 200.0 µg/kg, time 5.0 day
Anopheles sp. [3] = test: Insecticidal in Anopheles sp. assessed as lethal concentration membrane-fed with compound treated pig blood; type: functional
Plasmodium vivax [4] = test: Antimalarial activity against Plasmodium vivax assessed as reduction in […] in Anopheles darlingi mosquito fed with blood containing plasma isolated from compound treated human observed after 4 days relative to control; type: functional, organism-based; settings: time 4.0 day, dose or concentration not given here
Anopheles sp. [5] = test: Insecticidal in Anopheles sp. assessed as mortality rate membrane-fed with blood of compound treated mouse at 600 microg/kg observed within 6 days relative to control; type: functional, organism-based; settings: dose 600.0 µg/kg, time 6.0 day
Plasmodium berghei [6] = test: In vivo antimalarial activity against blood stage Plasmodium berghei transfected with GFP infected in mouse assessed as increase in mouse survival days at 0.5 mg/kg for 3 days; type: functional, organism-based; settings: time 3.0 day
Aedes aegypti [7] = test: Insecticidal in Aedes aegypti assessed as lethal concentration membrane-fed with compound treated blood; type: functional, organism-based
Anopheles arabiensis [8] = test: Insecticidal in Anopheles arabiensis assessed as percentage of reduction in mortality in 3 day survivorship fed with compound treated bovine blood at 73 mg observed for 24 weeks relative to control; type: functional, organism-based
Anopheles stephensi [9] = test: Insecticidal in Anopheles stephensi assessed as mortality rate fed with blood of compound treated rabbits at 0.34 mg/kg, sc 4 to 6 days post-injection relative to control; type: functional, organism-based; settings: time 4-6 day
Anopheles darlingi [10] = test: Insecticidal in Anopheles darlingi infected with Plasmodium vivax assessed as mortality rate midgut fed with blood isolated from compound treated parasite-infected human observed after 7 days relative to control; type: functional, organism-based; settings: time 7.0 day
Anopheles gambiae [11] = test: Insecticidal in Anopheles gambiae assessed as mortality fed with compound treated pig plasma at 20 ng/mL observed for 10 days relative to control; type: functional, organism-based; settings: time 10.0 day
Anopheles darlingi [12] = test: Insecticidal in Anopheles darlingi infected with Plasmodium vivax assessed as lethal concentration fed with compound treated human blood observed for 7 days; type: functional, organism-based; settings: time 7.0 day
Anopheles sp. [13] = test: Insecticidal in Anopheles sp. assessed as reduction in survival rate fed with compound treated human blood at 400 microg/kg observed in 48 hrs relative to control; type: functional, organism-based; settings: dose 400.0 µg/kg
Anopheles sp. [14] = test: Insecticidal in Anopheles sp. assessed as mortality fed with compound treated human blood at 400 microg/kg in the presence of 6 mg/kg diethylcarbamazine citrate died in 9 days relative to control; type: functional, organism-based; settings: dose 400.0 µg/kg, time 9.0 day
Plasmodium berghei [15] = test: In vivo antimalarial activity against liver stage Plasmodium berghei infected in mouse assessed as inhibition of liver infection at 10 mg/kg measured 44 to 46 hrs post-infection by bioluminescence assay relative to control; type: functional, organism-based; settings: time 44-46 hrs
Anopheles sp. [16] = test: In vitro Insecticidal in Anopheles sp. assessed as lethality membrane-fed with compound treated human blood at 400 microg/kg per day in presence of combination of 120 mg dihydroartemisinin, 960 mg piperaquine and 30 mg primaquine observed after 7 days; type: functional, organism-based; settings: dose 400.0 µg/kg, time 7.0 day
Anopheles sp. [17] = test: Insecticidal in Anopheles sp. assessed as mortality fed with treated bovine blood containing 1% of compound observed within 4 days after a blood meal on 2 days post treatment relative to control; type: functional, organism-based; settings: time 4.0 day
Anopheles arabiensis [18] = test: Insecticidal in Anopheles arabiensis assessed as reduction in survival rate fed with blood of compound treated human observed for […] relative to control; type: functional, organism-based
Anopheles stephensi [19] = test: Insecticidal in Anopheles stephensi larvae measured after 48 hrs; type: functional
Anopheles stephensi [20] = test: Insecticidal in Anopheles stephensi assessed as mortality rate fed with blood of compound treated mouse at […], sc before 12 hrs and observed after 36 hrs relative to control; type: functional, organism-based
Plasmodium vivax [21] = test: Antimalarial activity against Plasmodium vivax assessed as reduction in […] in Anopheles sp. mosquito midgut fed with blood isolated from compound treated parasite-infected human at 40 ng/ml observed after 7 days relative to control; type: functional, organism-based; settings: time 7.0 day
Anopheles gambiae [22] = test: Insecticidal in Anopheles gambiae assessed as mortality fed with compound treated bovine blood at 6 ng/mL observed for 10 days relative to control; type: functional, organism-based; settings: time 10.0 day
Anopheles arabiensis [23] = test: Insecticidal in Anopheles arabiensis assessed as reduction in number of eggs fed with compound treated bovine blood at 200 microg/kg relative to control; type: functional, organism-based; set-up: scale not given: the % may be the effect or the level left; settings: dose 200.0 µg/kg
Anopheles arabiensis [24] = test: Insecticidal in Anopheles arabiensis assessed as mean survival fed with blood of compound treated human at 12 mg, administered as a single dose observed at 2 days post treatment; type: functional, organism-based; settings: time 2.0 day
Anopheles sp. [25] = test: Insecticidal in Anopheles sp. infected with Plasmodium falciparum gametocytes assessed as reduction in survival fed with compound treated bovine blood at 200 microg/kg feeding at 28 days after injection relative to control; type: functional, organism-based; settings: dose 200.0 µg/kg
Aedes aegypti [26] = test: Insecticidal in Aedes aegypti assessed as mortality rate fed with blood of compound treated mouse at 83 mg/kg, sc before 12 hrs and observed after 36 hrs relative to control; type: functional, organism-based
Anopheles sp. [27] = test: Insecticidal in Anopheles sp. infected with Plasmodium falciparum gametocytes assessed as reduction in fecundity fed with compound treated bovine blood at 200 microg/kg feeding at 28 days after injection relative to control; type: functional, organism-based; set-up: scale not given: the % may be the effect or the level left; settings: dose 200.0 µg/kg
Anopheles sp. [28] = test: Insecticidal in Anopheles sp. assessed as mortality relative to control; type: functional, organism-based
Plasmodium vivax [29] = test: Antimalarial activity against Plasmodium vivax assessed as sporogony lethality in Anopheles darlingi mosquito fed with blood isolated from compound treated parasite-infected human observed after 7 days by measuring reduction in parasite prevalence level at Lc50 relative to control; type: functional, organism-based; set-up: scale not given: the % may be the effect or the level left; settings: time 7.0 day
Anopheles sp. [30] = test: Insecticidal in Anopheles sp. assessed as mortality rate fed with blood of compound treated human at 200 microg/kg administered once caught on day 3 after mass drug administration observed within 5 days relative to control; type: functional, organism-based; settings: dose 200.0 µg/kg, time 5.0 day
Anopheles gambiae [31] = test: Insecticidal in Anopheles gambiae assessed as lethal concentration membrane-fed with compound treated human blood at 200 microg/kg observed after 48 to 72 hrs; type: functional, organism-based; settings: dose 200.0 µg/kg, time 48-72 hrs
Anopheles sp. [32] = test: Insecticidal in Anopheles sp. infected with Plasmodium vivax assessed as mortality rate midgut fed with blood isolated from compound treated parasite-infected human observed after 7 days relative to control; type: functional, organism-based; settings: time 7.0 day
Anopheles sp. [33] = test: Insecticidal in Anopheles sp. assessed as lethal concentration membrane-fed with compound treated blood; type: functional, organism-based
Culex quinquefasciatus = test: Insecticidal in Culex quinquefasciatus assessed as mortality rate membrane-fed with compound treated human blood at 10 to 100 microg/mL observed within 7 days relative to control; type: functional, organism-based; settings: dose 10-100 µg/ml, time 7.0 day
Anopheles sp. [34] = test: Insecticidal in Anopheles sp. assessed as mortality fed with treated bovine blood containing 1% of compound observed within 4 days after a blood meal on 7 days post treatment relative to control; type: functional, organism-based; settings: time 4.0 day
Plasmodium berghei [35] = test: In vivo antimalarial activity against liver stage Plasmodium berghei infected in mouse assessed as increase in mouse survival days at 10 mg/kg; type: functional, organism-based
Plasmodium berghei [36] = test: In vivo antimalarial activity against blood stage Plasmodium berghei transfected with GFP infected in mouse assessed as supression of parasitemia at 0.5 mg/kg for 3 days relative to control; type: functional, organism-based; settings: time 3.0 day

Sequence: IVERMECTIN
- mortality (Anopheles sp. [1]): 100%
- mortality (Anopheles sp. [2]): 50%
- LC50 (Anopheles sp. [3]): 0.0178 µg/mL
- inhibition (Plasmodium vivax [4]): 99.9%
- mortality (Anopheles sp. [5]): 44%
- Survival (Plasmodium berghei [6]): 23 days
- MLC (Aedes aegypti [7]): 2.5 ppm
- mortality (Anopheles arabiensis [8]): 50%
- mortality (Anopheles stephensi [9]): 93%
- mortality (Anopheles darlingi [10]): 97.1%
- mortality (Anopheles gambiae [11]): 50%
- LC5 (Anopheles darlingi [12]): 14.8 ng/mL
- LC25 (Anopheles darlingi [12]): 0.0278 µg/mL
- LC50 (Anopheles darlingi [12]): 0.0432 µg/mL
- Survival (Anopheles sp. [13]): 31%
- mortality (Anopheles sp. [14]): 100%
- inhibition (Plasmodium berghei [15]): 80%
- LC50 (Anopheles sp. [16]): 0.0576 µg/mL
- mortality (Anopheles sp. [17]): 60%
- Survival (Anopheles arabiensis [18]): 50%
- LC50 (Anopheles stephensi [19]): 5.85 ppb
- mortality (Anopheles stephensi [20]): 100%
- inhibition (Plasmodium vivax [21]): 86%
- mortality (Anopheles gambiae [22]): 50%
- Activity (Anopheles arabiensis [23]): 82%
- Survival (Anopheles arabiensis [24]): 2.1 days
- Survival (Anopheles sp. [25]): 23%
- mortality (Aedes aegypti [26]): 60%
- Activity (Anopheles sp. [27]): 20%
- mortality (Anopheles sp. [28]): 90%
- Activity (Plasmodium vivax [29]): 22.6% and 17.1%
- mortality (Anopheles sp. [30]): 68%
- LC50 (Anopheles gambiae [31]): 0.01 µg/mL and 0.007 µg/mL
- mortality (Anopheles sp. [32]): 97.1%
- MLC (Anopheles sp. [33]): 50 ppm
- mortality (Culex quinquefasciatus): 100%
- mortality (Anopheles sp. [34]): 80%
- Survival (Plasmodium berghei [35]): 10 days
- Activity (Plasmodium berghei [36]): 40%
